Patent US11723886B2, “Targeting ocular diseases with novel APE1/Ref-1 inhibitors” (Indiana University Research and Technology Corporation, priority 2018, dated 2023)

Tests used:
[1] = system: Rf/6a macaque choroidal endothelial cells; experiment: In vitro cell proliferation assay (alamarBlue), Rf/6a; type: cell-based; conditions: Macaca mulatta, Rf/6a choroidal endothelial cells, read-out: GI50 (median growth inhibition), Rf/6a
Protocol: Cells. Primary human retinal microvascular endothelial cells (HRECs) were obtained from Cell Systems, Inc. (Kirkland, Wash.), while the Rf/6a macacque choroidal endothelial cell line was obtained from ATCC (Manassas, Va.). Cells were maintained as described (Basavarajappa et al., EMBO Mol Med 9:786-801 (2017)), re-ordered at least annually, and regularly assessed for mycoplasma contamination.
In vitro cell proliferation assay. Endothelial cell proliferation was measured as described previously (Basavarajappa et al., PLoS One 9:e95694 (2014); Basavarajappa et al., EMBO Mol Med 9:786-801 (2017)). Briefly, 2.5×10^3 cells were seeded in 100 μL of growth medium and plated in each well of 96-well clear-bottom black plates and incubated for 24 hours. APX2009, APX2014, or DMSO vehicle (DMSO final concentration=1%) was added, and the plates were incubated for 24-48 hours in 100 μL complete medium at 37° C. and 5% CO2. AlamarBlue reagent (11.1 μL) was added to each well of the plate and 4 hours later fluorescence readings were taken at excitation and emission wavelengths of 560 nm and 590 nm, respectively, using a Synergy H1 plate reader (BioTek, Winooski, Vt.). GI50 was calculated using GraphPad Prism v. 7.0.

[2] = system: Rf/6a cells; experiment: Scratch wound cell migration assay, Rf/6a; type: cell-based, macaque
Protocol: In vitro cell migration assay. Endothelial cell migration was monitored as described before (Basavarajappa et al., PLoS One 9:e95694 (2014); Basavarajappa et al., EMBO Mol Med 9:786-801 (2017)). Briefly, HRECs and Rf/6a were grown until confluency in 12-well plates. Using a sterile 10-μL micropipette tip, a scratch wound was made across the center of each well and fresh complete media containing DMSO or different concentrations of APX2009 or APX2014 compounds were added to the wells (DMSO final concentration=1%). Wells were imaged via digital brightfield microscopy at different time points, and the number of migrated cells into the scratched area was manually counted.

[3] = system: NF-κB p65; experiment: NF-κB p65 nuclear translocation assay in TNF-α stimulated HRECs; type: cell-based, human; conditions: 10 ng/ml TNF-α
Protocol: NF-κB p65 nuclear translocation assay. The NF-κB nuclear translocation assay was performed by seeding 30,000 HRECs/well on an 8-well chamber slide coated with attachment factors. The cells were grown in EGM-2 medium overnight before treating with indicated concentrations of APX2009 and APX2014, or 10 μM BAY 11-7082 (Sigma, St. Louis, Mo.) as a positive control NF-κB inhibitor. After 17 hours incubation, the media was replaced with EBM-2 (minimal medium) with indicated concentrations of compound or DMSO for 1 hour. The cells were then stimulated with 10 ng/ml TNF-α in EBM-2 for 20 minutes at 37° C. to activate NF-κB. Cells were then fixed in 4% paraformaldehyde and permeabilized using 0.5% Triton X-100 solution prepared in PBS. The cells were incubated with a monoclonal antibody against NF-κB p65 (sc-8008; Santa Cruz, Santa Cruz, Calif.) (1:50) overnight at 4° C., followed by Alexafluor 555 goat anti-mouse secondary antibody (1:2000) for one hour. The cells were counter-stained with Hoechst 33342 for nuclear staining and then mounted using Everbrite hardset mounting medium. The cells were imaged using a Zeiss AxioImager D2 microscope.

[4] = system: murine choroidal explants; experiment: Ex vivo choroidal sprouting assay; type: cell-based, mouse; conditions: for reduction of choroidal sprouting compared to control: 48 hours
Source text: Animals. All animal experiments were approved by the Indiana University School of Medicine Institutional Animal Care and Use Committee and followed the guidelines of the Association for Research in Vision and Ophthalmology Statement for the Use of Animals in Ophthalmic and Visual Research. Wild-type female C57BL/6 mice, 6-8 weeks of age, were purchased from Envigo (Indianapolis, Ind.; for choroidal sprouting experiments) or Jackson Laboratory (Bar Harbor, Me.; for L-CNV) and housed under standard conditions (Wenzel et al., Mol Vis 21:515-522 (2015)). Mice were anesthetized for all procedures by intraperitoneal injections of 90 mg/kg ketamine hydrochloride and 5 mg/kg xylazine, with intraperitoneal atipamezole reversal (1 mg/kg). Treatments were randomly assigned by cage.
Choroidal sprouting assay. Ex vivo Choroidal sprouting was assessed as described previously (Sulaiman et al., Sci Rep 6:25509 (2016); Basavarajappa et al., EMBO Mol Med 9:786-801 (2017)). Briefly, choroid-sclera was dissected from 7 to 8 week old mouse eyes and pieces were embedded in Matrigel (growth factor reduced) and grown in EGM-2 medium containing antibiotics for 72 hours to allow sprouting to initiate. The indicated concentrations of APX2009 and APX2014 compounds (in DMSO, final DMSO concentration 0.5 and 0.2%, respectively) were added and growth allowed to proceed for 48 hours Images were taken and growth was quantified by measuring the distance from the edge of the choroidal piece to the growth front in four directions per sample using ImageJ software.

[5] = system: HIF-regulated genes; experiment: RNA-Seq of HIF-regulated genes in HRECs; type: cell-based, human; conditions: 0.1 and 1 μM, 6 and 24 hours
Protocol: Human retinal endothelial cells (HRECs) (Cell Systems, Inc. Kirkland, Wash.) were plated in 6-well plates and treated with 0.1 μM APX2009, 1 μM APX2009 or DMSO for 6 hours and 24 hours. Cells were washed once after treatment with PBS, collected and frozen. This process was repeated to collect treated cells in 4 different passages. RNA was extracted in 300 μL Trizol (Life Technologies, Carlsbad, Calif.) and flash frozen at −80° C. The SMARTer system (Clontech, Mountain View, Calif.) was used to generate cDNA from cells. The dscDNA quantity and quality was assessed using an Agilent Bioanalyzer (Agilent Technologies, Santa Clara, Calif., USA) with the High Sensitivity DNA Chip. […] The IUSM Genomics Facility prepared libraries using a Nextera kit (Illumina, San Diego, Calif.). DNAs were sequenced using the Illumina HiSeq 4000.

[6] = system: APE1 repair activity in neurons; conditions: cited from earlier work

Compound	GI50 [1] [µM]	cell migration in scratch wound assay, Rf/6a [2]	translocation of p65 into the nucleus in response to TNF-α [3]	reduction of choroidal sprouting compared to control ([4]; at 1 μM (highest concentration tested)) [%]	concentrations inhibiting choroidal sprouting ex vivo [4]	expression of HIF regulated genes (RNA-Seq) [5]	reduction of choroidal sprouting compared to control ([4]; at 10 μM) [%]	APE1 repair activity in neurons [6]
CCC/C(=C\C1=C(OC)C(=O)c2ccccc2C1=O)C(=O)NOC [APX2014, (2E)-2-[(3-methoxy-1,4-dioxo-1,4-dihydronapthalen-2-yl)methylidene]-N-methoxypentanamide]	5	significantly inhibited	dose-dependently attenuated	~60	high nanomolar			
CCC/C(=C\C1=C(OC)C(=O)c2ccccc2C1=O)C(=O)N(CC)CC [APX2009, (2E)-2-[(3-methoxy-1,4-dioxo-1,4-dihydronaphthalen-2-yl)methylidene]-N,N-diethylpentanamide]	26	significantly inhibited	dose-dependently attenuated		low micromolar	blocked HIF regulated genes in a concentration dependent manner	~70	can enhance APE1 repair activity
